pIC50, pKi: −log10 of the molar value. Counter-ions that a name gives are not always drawn. Like-named read-outs stand apart in the source and are kept apart here. Each block holds one compound with its values, some of them ahead of it.
Columns and labels:
COX = details: non-selective COX assay; cited from earlier work
[1] = Procedure: Thus, the final concentration of Na citrate was about 50 mM. Three cGMP registration lots of the formulation, each in three hundred liter volume, were manufactured and stored at temperatures of 5° C., 25° C., 30° C., or 40° C. for long-term stability evaluation. Aliquots were taken from each lot at intervals and analyzed for potency and presence of related substances. In addition, the lots were visually inspected for appearance and the pH was also monitored.
Related substances (RS) were detected by HPLC.

[2] = One-liter scale stability study with or without Na2 EDTA, N2 overlay or sparge (Example 8); format: physicochemical; details: over six months
[3] = Formulation screening: storage stability, related substances by gradient HPLC (Examples 2-5); format: physicochemical; details: in the presence of 0.05% w/v Na2 EDTA versus none; up to thirty days
Procedure: The stability of the active pharmaceutical ingredients was tested in acetate or citrate buffers. […] Chromatographic conditions for the related substances assay were as follows: (a) Detection wave length, UV 215 nm; (b) Column, Zorbax SB-C8, 5 μm, 4.6×250 mm; (c) Column temp, 30±1° C.; (d) Sample temp, Ambient; (e) Flow rate, 1.2 mL/min; (f) Injection volume, 20 μL; (g) Run Time, 30 minutes.
F6 included 50 mM Na acetate buffer, pH 5.5; F7 included 50 mM Na citrate buffer, pH 5.5. […] Citric acid also has the ability to chelate divalent cations and can prevent oxidation, thus acting both as a buffering agent and an antioxidant.
The Stability of the Active Pharmaceutical Ingredients was Tested in Buffers with varying pH values. […] Data not shown. Both formulations included 50 mM Na citrate buffer. F8 pH was 6.5 and F9 pH was 5.5.
The stability of the active, pharmaceutical ingredients in liquid formulation was tested in the presence of N2 overlay and light protection. Two formulations, F10 and F11, were prepared and stored for up to 28 days under the conditions shown in FIG. 4A, i.e., with or without N2 overlay and light protection. […] F10 was prepared under protection from light and N2 overlay post-compounding and pre-filling of formulation into vials, while F11 was not.
The effect of antioxidants on stability of the active pharmaceutical ingredients in liquid formulation was tested. […]

[4] = target: non-human 5-HT1A, 5-HT1B and 5-HT1D receptors; details: range over non-human 5-HT1A; cited from earlier work
[5] = target: human 5-HT1B and 5-HT1D receptors; details: range over human 5-HT1B and 5-HT1D receptors; cited from earlier work
5-HT1B/1D receptor = details: human saphenous vein; read-out: IC50 (functional agonist); cited from earlier work
[6] = target: α1A- and α2A-adrenoceptors; details: range over α1A- and α2A-adrenoceptors; cited from earlier work

SMILES: CC(C(=O)O)c1cccc(C(=O)c2ccccc2)c1 (stereo not drawn) [Ketoprofen, ketoprofen]
- pIC50 (COX): 8.10 to 8.40

- total RS % ([1]; stored at 30° C. and 40° C.): increased significantly
- total RS % ([1]; two years at 5° C.): 0.00%
- total RS % ([1]; two years at 25° C.): about 0.15%
- related substances of the named API [2]: less than 1%
SMILES: Cc1cc(C(C)(C)C)c(O)c(C)c1CC1=NCCN1 [Oxymetazoline HCl, oxymetazoline HCl]

- chemical stability [3]: improved
- stability in the tested formulation [1]: stable
- RS presence ([1]; 4° C.): present sporadically
- related substances of the named API [2]: less than 5%
SMILES: CN(C)CCC=C1c2ccccc2CCc2ccccc21 [amitriptyline HCl]
- percentage of RS over time ([1]; 25° C. and 30° C.): increased over the first three months, and then was stable for up to two years
- percentage of RS over time ([1]; 40° C.): increased during the first month and then stabilized

SMILES: Cc1cc(C(C)(C)C)c(O)c(C)c1CC1=NCCN1 [oxymetazoline]
- pIC50 [4]: 7.59 to 8.52
- pKi [5]: 9.40 to 9.52
- pIC50 (5-HT1B/1D receptor): 7.52
- pKi [6]: 8.22 to 8.52

Reference: patent US20180344855A1, “Stable Anti-inflammatory Solutions for Injection” (Omeros Corporation, priority 2011, published 2018)
